In patent US11878049B1, “Mitapivat therapy and modulators of cytochrome P450” (Agios Pharmaceuticals, Inc., priority 2019, dated 2024):

What was measured:
Type in all cases: in vitro ADME
CYP2C9 [1] = target: T1, CYP2C9 (Homo sapiens, UniProt P11712); assay: CYP-enzyme phenotyping using human liver microsomes and recombinant CYP enzymes; set-up: CYP-enzyme phenotyping using human liver microsomes and recombinant CYP enzymes; from tissue; host or cells: human liver microsomes
CYP2C8 = CYP2C8 (Homo sapiens, UniProt P10632); assay: as above; set-up: CYP-enzyme phenotyping using human liver microsomes and recombinant CYP enzymes; from tissue; host or cells: human liver microsomes
Sequence of CYP2C8 (P10632 whole entry): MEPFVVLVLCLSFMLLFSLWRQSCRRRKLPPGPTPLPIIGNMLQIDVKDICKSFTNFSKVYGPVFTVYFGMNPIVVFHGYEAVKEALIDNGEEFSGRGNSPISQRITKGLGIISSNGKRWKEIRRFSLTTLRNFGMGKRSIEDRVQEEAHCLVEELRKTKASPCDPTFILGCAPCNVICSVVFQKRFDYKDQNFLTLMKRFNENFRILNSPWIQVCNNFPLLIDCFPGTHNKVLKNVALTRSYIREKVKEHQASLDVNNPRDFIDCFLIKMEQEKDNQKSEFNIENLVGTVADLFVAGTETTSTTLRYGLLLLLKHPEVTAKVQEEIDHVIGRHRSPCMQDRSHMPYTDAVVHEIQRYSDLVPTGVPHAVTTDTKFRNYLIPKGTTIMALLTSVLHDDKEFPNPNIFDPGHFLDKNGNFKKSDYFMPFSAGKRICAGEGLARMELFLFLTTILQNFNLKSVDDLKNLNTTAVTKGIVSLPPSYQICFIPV

[2] = target: T2, breast cancer resistance protein (BCRP) (Homo sapiens, UniProt Q9UNQ0); assay: Transporter inhibition
T2 sequence (Q9UNQ0 1-655): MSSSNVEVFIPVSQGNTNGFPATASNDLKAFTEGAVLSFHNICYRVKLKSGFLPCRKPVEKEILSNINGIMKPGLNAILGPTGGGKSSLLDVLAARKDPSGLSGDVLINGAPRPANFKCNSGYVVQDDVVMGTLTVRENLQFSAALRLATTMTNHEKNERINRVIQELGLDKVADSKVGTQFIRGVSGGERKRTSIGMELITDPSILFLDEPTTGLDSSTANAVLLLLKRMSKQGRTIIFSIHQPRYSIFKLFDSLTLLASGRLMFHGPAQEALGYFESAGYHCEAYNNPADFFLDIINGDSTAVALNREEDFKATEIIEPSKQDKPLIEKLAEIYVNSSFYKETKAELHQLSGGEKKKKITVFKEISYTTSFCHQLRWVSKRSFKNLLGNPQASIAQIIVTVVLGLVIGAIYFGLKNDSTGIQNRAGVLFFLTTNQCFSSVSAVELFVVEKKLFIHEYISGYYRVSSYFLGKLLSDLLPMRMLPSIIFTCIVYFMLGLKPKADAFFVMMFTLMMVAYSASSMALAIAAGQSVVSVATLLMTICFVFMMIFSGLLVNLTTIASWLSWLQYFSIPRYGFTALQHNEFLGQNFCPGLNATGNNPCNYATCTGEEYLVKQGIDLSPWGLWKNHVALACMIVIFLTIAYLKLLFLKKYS

P-gp = P-gp (Homo sapiens, UniProt P08183); assay: Transporter inhibition
Sequence of P-gp (P08183 whole entry): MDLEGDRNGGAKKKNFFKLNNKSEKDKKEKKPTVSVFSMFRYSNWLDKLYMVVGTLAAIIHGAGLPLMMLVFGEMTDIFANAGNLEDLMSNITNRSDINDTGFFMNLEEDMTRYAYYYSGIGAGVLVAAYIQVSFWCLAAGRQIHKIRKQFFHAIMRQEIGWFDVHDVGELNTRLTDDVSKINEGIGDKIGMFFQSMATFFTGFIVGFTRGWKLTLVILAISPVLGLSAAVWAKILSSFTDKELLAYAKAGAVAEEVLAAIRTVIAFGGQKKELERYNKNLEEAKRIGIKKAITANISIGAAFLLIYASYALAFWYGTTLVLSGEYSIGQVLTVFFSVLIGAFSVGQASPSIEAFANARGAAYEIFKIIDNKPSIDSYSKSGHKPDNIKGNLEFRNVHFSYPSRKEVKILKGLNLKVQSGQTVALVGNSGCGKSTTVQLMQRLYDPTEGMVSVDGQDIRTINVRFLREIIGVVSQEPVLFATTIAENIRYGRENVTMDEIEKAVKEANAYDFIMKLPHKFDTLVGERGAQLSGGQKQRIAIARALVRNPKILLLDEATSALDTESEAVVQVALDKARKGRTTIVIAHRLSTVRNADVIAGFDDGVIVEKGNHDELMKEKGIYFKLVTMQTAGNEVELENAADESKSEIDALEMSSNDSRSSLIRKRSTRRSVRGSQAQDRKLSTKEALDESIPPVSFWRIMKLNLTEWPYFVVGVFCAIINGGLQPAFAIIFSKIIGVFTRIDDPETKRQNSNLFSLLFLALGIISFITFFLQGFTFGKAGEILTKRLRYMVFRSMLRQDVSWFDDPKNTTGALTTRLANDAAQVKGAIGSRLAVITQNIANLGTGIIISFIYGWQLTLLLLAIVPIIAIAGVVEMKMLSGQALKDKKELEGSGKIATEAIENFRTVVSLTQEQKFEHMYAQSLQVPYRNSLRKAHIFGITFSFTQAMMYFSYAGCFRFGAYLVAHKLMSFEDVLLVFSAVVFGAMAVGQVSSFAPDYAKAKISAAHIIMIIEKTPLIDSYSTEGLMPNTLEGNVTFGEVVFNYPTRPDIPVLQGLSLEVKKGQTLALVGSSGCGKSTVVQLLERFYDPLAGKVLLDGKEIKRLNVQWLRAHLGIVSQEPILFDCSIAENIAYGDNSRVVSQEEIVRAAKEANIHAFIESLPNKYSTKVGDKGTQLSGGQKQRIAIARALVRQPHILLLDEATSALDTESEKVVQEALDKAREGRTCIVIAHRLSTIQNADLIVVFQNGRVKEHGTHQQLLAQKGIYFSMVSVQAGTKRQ

CYP2C9 [3] = target: T1, CYP2C9; assay: CYP enzyme inhibition
CYP2C19 = CYP2C19 (Homo sapiens, UniProt P33261); assay: CYP enzyme inhibition
Sequence of CYP2C19 (P33261 whole entry): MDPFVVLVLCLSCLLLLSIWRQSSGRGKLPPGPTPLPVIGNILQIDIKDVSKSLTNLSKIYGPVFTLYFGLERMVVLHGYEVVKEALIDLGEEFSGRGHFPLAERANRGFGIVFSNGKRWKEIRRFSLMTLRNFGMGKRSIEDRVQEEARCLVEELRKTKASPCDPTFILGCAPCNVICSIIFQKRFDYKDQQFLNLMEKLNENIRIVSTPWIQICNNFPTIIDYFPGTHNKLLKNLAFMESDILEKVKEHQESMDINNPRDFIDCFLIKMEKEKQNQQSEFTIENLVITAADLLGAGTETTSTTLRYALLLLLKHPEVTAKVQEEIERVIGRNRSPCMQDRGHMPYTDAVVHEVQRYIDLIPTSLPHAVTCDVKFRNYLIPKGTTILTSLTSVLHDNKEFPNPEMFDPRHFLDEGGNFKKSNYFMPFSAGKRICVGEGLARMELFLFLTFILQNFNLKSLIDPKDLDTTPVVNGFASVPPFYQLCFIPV

T1 sequence (P11712 whole entry): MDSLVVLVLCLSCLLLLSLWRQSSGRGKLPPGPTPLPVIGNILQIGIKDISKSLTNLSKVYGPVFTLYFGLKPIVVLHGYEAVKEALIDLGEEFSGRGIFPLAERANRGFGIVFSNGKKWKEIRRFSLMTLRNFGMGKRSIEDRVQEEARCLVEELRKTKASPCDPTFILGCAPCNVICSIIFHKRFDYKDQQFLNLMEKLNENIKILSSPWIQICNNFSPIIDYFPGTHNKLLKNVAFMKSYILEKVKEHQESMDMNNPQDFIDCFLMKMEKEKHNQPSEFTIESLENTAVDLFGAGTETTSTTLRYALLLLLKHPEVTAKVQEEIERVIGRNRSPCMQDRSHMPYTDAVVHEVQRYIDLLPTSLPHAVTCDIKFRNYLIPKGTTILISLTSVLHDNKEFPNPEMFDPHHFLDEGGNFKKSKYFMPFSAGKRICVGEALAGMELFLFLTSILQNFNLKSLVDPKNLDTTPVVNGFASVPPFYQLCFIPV

| Compound | Contribution of CYP2C9 to metabolism (CYP2C9 [1]) | Contribution of CYP2C8 to metabolism (CYP2C8) | Inhibitor for BCRP [2] | Inhibitor for P-gp (P-gp) | Inhibition of CYP2C9 (CYP2C9 [3]) | Inhibition of CYP2C19 (CYP2C19) |
| --- | --- | --- | --- | --- | --- | --- |
| O=C(c1ccc(NS(=O)(=O)c2cccc3cccnc23)cc1)N1CCN(CC2CC2)CC1 [Mitapivat, N-(4-(4-(cyclopropylmethyl)piperazine-1-carbonyl)phenyl)quinoline-8-sulfonamide] | minor contributions | minor contributions | – | – | – | – |
| O=C(c1ccc(NS(=O)(=O)c2cccc3cccnc23)cc1)N1CCNCC1 [Metabolite] | – | – | not an inhibitor | not an inhibitor | mild inhibitor | mild inhibitor |
